Measured values as given in patent publication US20250255847A1, “[…]s: Novel Drugs for Triple Negative Breast Cancer” (SIMMARON RSEARCH INC, priority 2024, published 2025).

What was measured:
[1] = test system: transcriptional activity of STAT3; test: STAT3-responsive eGFP reporter assay in MDA-MB-468 cells; format: cell-based, human; conditions: for EGF-induced GFP reporter activity: EGF 20 ng/mL, different doses; for IC50: Homo sapiens, MDA-MB-468, read-out: IC50 of STAT3 activation (eGFP reporter); for lowest concentration inhibiting STAT3 activation (eGFP reporter): as low as
Method: (§1) FIG. 10 illustrates an embodiment of the present invention and illustrates SIM-1 and SIM-2 inhibit expressions of IL6, RANTES, and other STAT3-dependent tumor promoting genes and proteins. (A) A gene array of STAT3 dependent 66 genes (listed in Table 1) was performed in mRNA samples of MDA-MB-468 cells. Realtime PCR plate coated with 66 primer sets of STAT3-dependent genes was run for four conditions including control, EGF (25 ng/mL), EGF+SIM-1 (10 nM) and EGF+SIM-2 (10 nM). The resultant Ct value was normalized with four different housekeeping genes, and then summarized with a heatmap analyses drawn in Morpheus server of Broad Institute. […] (C) The cloning of STAT3 response element of IL6 promoter upstream of GFP reporter was performed by GeneCopoea genome editing service (Rockville, MD). The bit score map and sequence of consensus STAT3 response element or SEQ ID NO: 2 was shown below. EGFP reporter assay was performed in EGF-induced (20 ng/mL) MDA-MB-468 after treatments of increasing doses of (D) SIM-1 and (E) SIM-2 for 5 hrs. Briefly, MDA-MB-468 cells were transfected with the plasmid for 24 hrs using Lipofectamine transfection strategy followed by the treatment with EGF (20 ng/mL) alone and together with increasing doses SIM-1 and SIM-2 for additional 5 hrs. After that live cells were recorded at Ex:Em=485/535 nm wavelength for GFP activity. (F) The scrambled STAT3 response element in IL6 promoter or SEQ ID NO: 3 was also synthesized partnering with GeneCopoea. One-way ANOVA (treatment as effector) was adopted to test the significance between groups at **p<0.01, #p<0.005, and *p<0.05. (G) The GFP reporter activity was measured where the scrambled gene was cloned upstream of eGFP reporter. Results are mean±SD of three different experiments Ns=no significance. (H) Realtime PCR analyses of IL6 was performed in MDA-MB-468 cells maintained under control, EGF (25 ng/mL), EGF+SIM-1(20 nM), and EGF+SIM-2 (20 nM) conditions for 5 hrs. (I) ELISA analysis of IL6 was performed after 48 hrs in MDA-MB-468 cells kept under similar treatment conditions. (J) Realtime PCR (5 hrs post-treatment) and (K) ELISA analyses of RANTES (48 hrs post treatment) were performed under similar condition. Results are mean±SD of three different experiments. One-way ANOVA (treatment as effector) was adopted to test the significance between groups at ***p<0.001, **p<0.01, and *p<0.05.
GFP reporter assay. To assay the transcriptional activities of STAT3, cells at 75% confluence were transfected by 0.1 μg of pEZX-PF02 plasmid cloned with STAT3 response element of IL6 promoter upstream of eGFP reporter. The transfection was done by Lipofectamine 3000™ reagent as per the manufacturer's protocol (Thermofisher). […] GFP reporter activities were analyzed in PerkinElmer VictorX3 plate reader at Ex:Em=485/535 nm.
Once recruited to the DNA, STAT3 controls the gene transcription. Therefore finally, an eGFP reporter assay was performed to evaluate if SIM-1 and SIM-2 inhibited the transcriptional activity of STAT3. An eGFP reporter cassette was cloned under the guidance of IL6 promoter carrying STAT response element (FIG. 10C), transfected in MDA-MB-468 cells, and then treated by EGF (20 ng/mL) along with different doses of SIM-1 and SIM-2.

IL6 = IL6 real-time PCR and ELISA in MDA-MB-468 cells; format: cell-based, human; conditions: for gene expression of IL6 (real-time PCR): 20 nM, 5 hrs; for IL6 protein in supernatants (ELISA): EGF stimulation, 48 hrs
Method: as §1
ELISA assay. IL6 (BD OptEIA™; Cat #555220) and RANTES (Thermo; Cat #EHRNTS) ELISA was performed as per manufacturer's protocol. […]
Once the transcriptional regulation of STAT3-dependent genes was confirmed, the quantification of IL6 was performed. […]

Compound | EGF-induced GFP reporter activity [1] | IC50 [1] | lowest concentration inhibiting STAT3 activation (eGFP reporter) [1] | gene expression of IL6 (real-time PCR) (IL6) | IL6 protein in supernatants (ELISA) (IL6)
CCOC(=O)c1c(NC(C)=O)sc2c(Cl)c(/C=N/O)ccc12 [SIM-2, ethyl 2-acetamido-7-chloro-6-(hydroxyiminomethyl)-1-benzothiophene-3-carboxylate] | dose-dependently inhibited | ~20 nM | 5 nM | strongly inhibited | suppression of IL6
O=C(O)CCC(=O)NCc1csc2ccc(Cl)cc12 [SIM-1, 4-[(5-chloro-1-benzothiophen-3-yl)methylamino]-4-oxobutanoic acid] | dose-dependently inhibited | ~20 nM | 5 nM | strongly inhibited | suppression of IL6
